Measured values reported in article PMC4561586 (Biochimica et biophysica acta, 2015).

Biological target: T1, Nostoc linoleate 10S-dioxygenase (10S-DOX) (Nostoc punctiforme, UniProt B2J5P4)
T1 sequence (B2J5P4 1-542): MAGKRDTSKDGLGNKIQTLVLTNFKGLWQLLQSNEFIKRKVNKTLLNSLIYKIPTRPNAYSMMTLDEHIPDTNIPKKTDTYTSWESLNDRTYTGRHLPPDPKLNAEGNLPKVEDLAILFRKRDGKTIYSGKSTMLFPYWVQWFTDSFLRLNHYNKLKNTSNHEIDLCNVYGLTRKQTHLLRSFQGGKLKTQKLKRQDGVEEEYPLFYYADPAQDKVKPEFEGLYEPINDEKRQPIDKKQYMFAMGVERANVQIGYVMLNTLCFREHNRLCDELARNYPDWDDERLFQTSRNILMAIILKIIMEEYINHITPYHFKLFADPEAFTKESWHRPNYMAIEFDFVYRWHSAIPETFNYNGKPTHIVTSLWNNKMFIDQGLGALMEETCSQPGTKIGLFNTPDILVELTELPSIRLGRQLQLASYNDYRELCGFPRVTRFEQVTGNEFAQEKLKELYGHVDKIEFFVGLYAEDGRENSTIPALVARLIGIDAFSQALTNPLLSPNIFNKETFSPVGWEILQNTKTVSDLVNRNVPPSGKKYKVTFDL
Test: oxygen uptake kinetics
Type: biochemical

Km: 60.3 µM
Compound: CCCCC/C=C\C/C=C\CCCCCCCC(=O)O [LA, linoleic acid]
